In brackets after ≈: the same amount, converted by molar mass.
Columns and labels:
KB = assay: Cytotoxicity against human KB cells by colorimetric assay; format: functional, cell-based
[1] = Inhibition of FTase by fluorimetry

Row | Activity [1] | Structure (SMILES) | IC50 (KB)
1 | > 10 µg/mL | C=CC(C)(C)c1c(O)cc(OC)c2c1O[C@]13[C@@H](C2=O)[C@H](OC)[C@@H]2C[C@H]1C(C)(C)O[C@@]3(CC=C(C)C)C2=O | 1.5 µg/mL (≈ 2.94 µM)
2 | 4.7 µg/mL | C=CC(C)(C)c1c(O)cc(O)c2c1O[C@]13C(=C[C@@H]4C[C@H]1C(C)(C)O[C@@]3(CC=C(C)C)C4=O)C2=O [BRACTATIN] | 0.4 µg/mL (≈ 0.861 µM)
3 | 5.6 µg/mL | CC(C)=CC[C@]12OC(C)(C)[C@@H]3C[C@@H](C=C4C(=O)c5c(O)cc6c(c5O[C@]431)C(C)(C)[C@H](C)O6)C2=O [ISOBRACTATIN] | 1.5 µg/mL (≈ 3.23 µM)
4 |  | CC(C)=CC[C@@]12OC(C)(C)[C@@H]3C[C@@H](C=C4C(=O)c5c(O)cc(O)cc5O[C@]431)C2=O | 0.8 µg/mL (≈ 2.02 µM)
5 | > 10 µg/mL | COc1cc2c(c3c1C(=O)C1=C[C@@H]4C[C@H]5C(C)(C)O[C@](CC=C(C)C)(C4=O)[C@@]15O3)C(C)(C)[C@H](C)O2 | 0.8 µg/mL (≈ 1.67 µM)
6 | > 10 µg/mL | C=CC(C)(C)c1c(O)cc(OC)c2c1O[C@]13C(=C[C@@H]4C[C@H]1C(C)(C)O[C@@]3(CC=C(C)C)C4=O)C2=O | 0.3 µg/mL (≈ 0.627 µM)
7 |  | C=CC(C)(C)c1c(O)cc(OC)c2c1O[C@@]13C[C@H]4[C@@H](C=C1C2=O)[C@](CC=C(C)C)(OC4(C)C)C3=O | 0.2 µg/mL (≈ 0.418 µM)

From ChEMBL document CHEMBL1154558, “Cytotoxic prenylxanthones from Garcinia bracteata” (J Nat Prod, 2000)
